# Data published in patent US5326882A, “Chemiluminescent 3-(substituted Adamant-2'-Ylidene) 1,2-dioxetanes” (Tropix, Inc., priority 1992, dated 1994).
# What was measured:
# [1] = biological target: T1, biotinylated pBR322-35mer detected with Avidix-AP (Bos taurus, UniProt P19111); test: Half-time to maximum chemiluminescence, biotinylated DNA on membranes (Example XXVIII); conditions: 12.5 pg DNA, […] dioxetane in 0.1 M DEA, pH 10.0
# T1 construct: purchased Tropix, Inc
# Description: The performance of AMPPD and Cl-AMPPD on a nylon membrane was compared as follows: 12.5 picograms of biotinylated-pBR322-(35 mer) in 1 μL was spotted onto dry nylon membrane and crosslinked to the membrane with UV light. The membrane subsequently wetted with 1×SSC buffer, incubated with 0.2% casein, 0.1% Tween-20 in phosphate buffered saline (PBS) for 1 hour at room temperature, washed 4 times with 0.3% Tween-20 in PBS, washed twice in Substrate Buffer (0.1 M diethanolamine, 1 mM MgCl2, pH 10.0), and incubated for 5 minutes in 0.25 mM dioxetane in Substrate Buffer. In this fashion, two membranes: one incubated with AMPPD and the second with Cl-AMPPD, were generated. The membranes were then sealed in plastic, attached to the outside of a 12×75 mm glass test tube, and inserted into Turner Model 20-E luminometer equipped with a side-mounted photomultiplier detector and thermally equilibrated to 30° C. The chemiluminescence intensity was then monitored for 20-24 hours.
# The half-times to the maximum chemiluminescence intensity obtained with AMPPD and Cl-AMPPD on PVDF and nylon membranes were calculated from data collected as described in Example XXVII, for the nylon membrane. For PVDF membrane, the revised protocol included the second Substrate Buffer wash followed by the membrane incubation for 5 minutes at room temperature in the Tropix NitroBlock™ reagent and a subsequent wash with Substrate Buffer prior to the dioxetane substrates addition. The half-times to the maximum chemiluminescent signal were calculated from the a plot of the logarithm (maximum chnemiluminescent signal minus signal at each time point) as a function of time and is shown in Table 9.
# 12.5 pg of biotinylated pBR322-35mer was detected with Avidix-AP and 0.24 mM dioxetane in 0.1 M DEA, pH 10.0.
# alkaline phosphatase [2] = biological target: T2, alkaline phosphatase (Bos taurus, UniProt P19111); test: Chemiluminescent signal and signal:background with enhancer polymers (Example XVII); format: biochemical
# T2 sequence (P19111 20-506 limits assumed): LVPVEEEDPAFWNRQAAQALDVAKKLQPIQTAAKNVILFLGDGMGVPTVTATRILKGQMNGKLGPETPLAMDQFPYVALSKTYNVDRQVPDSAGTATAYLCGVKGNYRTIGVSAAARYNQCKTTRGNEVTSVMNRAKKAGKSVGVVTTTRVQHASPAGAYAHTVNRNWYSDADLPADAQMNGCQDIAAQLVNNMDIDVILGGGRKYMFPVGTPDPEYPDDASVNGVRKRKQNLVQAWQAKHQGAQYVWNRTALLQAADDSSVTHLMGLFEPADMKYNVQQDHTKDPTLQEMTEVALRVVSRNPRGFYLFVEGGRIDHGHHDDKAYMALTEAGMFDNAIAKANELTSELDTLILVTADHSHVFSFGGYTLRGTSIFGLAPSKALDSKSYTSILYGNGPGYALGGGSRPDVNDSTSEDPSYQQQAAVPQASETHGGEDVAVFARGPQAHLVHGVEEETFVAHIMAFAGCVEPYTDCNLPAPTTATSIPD
# Description: Four sets of three tubes each, each tube in each set containing 450 μl of a 0.4 mM aqueous solution of one of the four 1,2-dioxetanes being compared in 0.1M diethanolamine containing 1 mM magnesium chloride, 0.02% sodium azide and 0.1% of the enhancer polymer, pH 10.0 (substrate buffer) were prepared and the background signal from each tube measured using a Berthold LB 952T luminometer (Berthold Instruments; Wildbad, Federal Republic of Germany).
# Next, 50 μl of an aqueous solution, 2.83×10^-12 M of alkaline phosphatase in 0.1M diethanolamine containing 1 mM magnesium chloride, 0.02% sodium azide, pH 10.0, (final enzyme concentration 2.83×10^-13 M) was added to each tube and the chemiluminescent signals were measured in the luminometer at 5 and 20 minutes. The intensity of the chemiluminescent signals and the signal: background ratios obtained for each of the four 1,2-dioxetanes in the presence of the enhancer polymers are shown in Table III below.
# The enhancer polymers used, and the symbols for such polymers used in Table III, were the following: […]
# alkaline phosphatase [3] = biological target: T2, alkaline phosphatase; test: Half-time to plateau at low alkaline phosphatase concentration (Example XLI); format: biochemical; conditions: 0.4 mM dioxetane at pH 10.0; 31.5° C.; 2.53 × 10^-13 M alkaline phosphatase
# T1 sequence (P19111 20-506 limits assumed): as above
compound,measurement,setting,value
"COC1(c2cccc(OP(=O)(O)O)c2)OOC12C1CC3CC(C1)CC2C3 (stereo not drawn) [AMPPD, 3-(4-methoxyspiro[1,2-dioxetane-3,2'-triyclo[3.3.1.1^3,7]decan]-4-yl)phenyl phosphate, reference compound]",HALF-TIME TO MAXIMUM CHEMILUMINESCENCE,[1]; Nylon membrane,99.83 min
same,HALF-TIME TO MAXIMUM CHEMILUMINESCENCE,[1]; PVDF membrane treated with NitroBlock,49.51 min
same,S/N,"alkaline phosphatase [2]; polymer BAEDM, 5 min",107.6
same,SIGNAL,"alkaline phosphatase [2]; polymer BAEDM, 5 min",9275.3
same,S/N,"alkaline phosphatase [2]; polymer BAEDM, 20 min",306.5
same,SIGNAL,"alkaline phosphatase [2]; polymer BAEDM, 20 min",26529.1
same,S/N,"alkaline phosphatase [2]; polymer BAEDM, time 0",1.0
same,SIGNAL,"alkaline phosphatase [2]; polymer BAEDM, time 0 (background, before enzyme)",217.3
same,S/N,"alkaline phosphatase [2]; polymer BZ, 5 min",18.3
same,SIGNAL,"alkaline phosphatase [2]; polymer BZ, 5 min",2738.0
same,S/N,"alkaline phosphatase [2]; polymer BZ, 20 min",30.9
same,SIGNAL,"alkaline phosphatase [2]; polymer BZ, 20 min",4611.5
same,S/N,"alkaline phosphatase [2]; polymer BZ, time 0",1.0
same,SIGNAL,"alkaline phosphatase [2]; polymer BZ, time 0 (background, before enzyme)",149.4
same,S/N,"alkaline phosphatase [2]; polymer DAA TMQ, 5 min",46.4
same,SIGNAL,"alkaline phosphatase [2]; polymer DAA TMQ, 5 min",8354.4
same,S/N,"alkaline phosphatase [2]; polymer DAA TMQ, 20 min",83.1
same,SIGNAL,"alkaline phosphatase [2]; polymer DAA TMQ, 20 min",14957.3
same,S/N,"alkaline phosphatase [2]; polymer DAA TMQ, time 0",1.0
same,SIGNAL,"alkaline phosphatase [2]; polymer DAA TMQ, time 0 (background, before enzyme)",180.0
same,S/N,"alkaline phosphatase [2]; polymer DME(OH)B, 5 min",21.4
same,SIGNAL,"alkaline phosphatase [2]; polymer DME(OH)B, 5 min",3462.3
same,S/N,"alkaline phosphatase [2]; polymer DME(OH)B, 20 min",52.9
same,SIGNAL,"alkaline phosphatase [2]; polymer DME(OH)B, 20 min",8540.9
same,S/N,"alkaline phosphatase [2]; polymer DME(OH)B, time 0",1.0
same,SIGNAL,"alkaline phosphatase [2]; polymer DME(OH)B, time 0 (background, before enzyme)",161.6
same,S/N,"alkaline phosphatase [2]; polymer DMEB, 5 min",52.6
same,SIGNAL,"alkaline phosphatase [2]; polymer DMEB, 5 min",9401.5
same,S/N,"alkaline phosphatase [2]; polymer DMEB, 20 min",114.4
same,SIGNAL,"alkaline phosphatase [2]; polymer DMEB, 20 min",20434.9
same,S/N,"alkaline phosphatase [2]; polymer DMEB, time 0",1.0
same,SIGNAL,"alkaline phosphatase [2]; polymer DMEB, time 0 (background, before enzyme)",178.6
same,S/N,"alkaline phosphatase [2]; polymer DMQ TEQ, 5 min",133.9
same,SIGNAL,"alkaline phosphatase [2]; polymer DMQ TEQ, 5 min",32820.5
same,S/N,"alkaline phosphatase [2]; polymer DMQ TEQ, 20 min",322.1
same,SIGNAL,"alkaline phosphatase [2]; polymer DMQ TEQ, 20 min",78977.4
same,S/N,"alkaline phosphatase [2]; polymer DMQ TEQ, time 0",1.0
same,SIGNAL,"alkaline phosphatase [2]; polymer DMQ TEQ, time 0 (background, before enzyme)",245.2
same,SIGNAL,"alkaline phosphatase [2]; polymer EMERALD (sapphire and fluorescein), time 0 (background, before enzyme)",2902.1
same,S/N,"alkaline phosphatase [2]; polymer EMERALD, 5 min",109.4
same,SIGNAL,"alkaline phosphatase [2]; polymer EMERALD, 5 min",317571.6
same,S/N,"alkaline phosphatase [2]; polymer EMERALD, 20 min",282.1
same,SIGNAL,"alkaline phosphatase [2]; polymer EMERALD, 20 min",818775.8
same,S/N,"alkaline phosphatase [2]; polymer EMERALD, time 0",1.0
same,S/N,"alkaline phosphatase [2]; polymer MPB, 5 min",94.3
same,SIGNAL,"alkaline phosphatase [2]; polymer MPB, 5 min",19971.8
same,S/N,"alkaline phosphatase [2]; polymer MPB, 20 min",196.9
same,SIGNAL,"alkaline phosphatase [2]; polymer MPB, 20 min",41701.8
same,S/N,"alkaline phosphatase [2]; polymer MPB, time 0",1.0
same,SIGNAL,"alkaline phosphatase [2]; polymer MPB, time 0 (background, before enzyme)",211.8
same,S/N,"alkaline phosphatase [2]; polymer NONE, 5 min",21.5
same,SIGNAL,"alkaline phosphatase [2]; polymer NONE, 5 min, enzyme 2.83×10^-13 M",3706.0
same,S/N,"alkaline phosphatase [2]; polymer NONE, 20 min",34.4
same,SIGNAL,"alkaline phosphatase [2]; polymer NONE, 20 min, enzyme 2.83×10^-13 M",5944.8
same,S/N,"alkaline phosphatase [2]; polymer NONE, time 0",1.0
same,SIGNAL,"alkaline phosphatase [2]; polymer NONE, time 0 (background, before enzyme)",172.6
same,S/N,"alkaline phosphatase [2]; polymer S/TMQ(1:2), 5 min",20.2
same,SIGNAL,"alkaline phosphatase [2]; polymer S/TMQ(1:2), 5 min",3437.0
same,S/N,"alkaline phosphatase [2]; polymer S/TMQ(1:2), 20 min",58.9
same,SIGNAL,"alkaline phosphatase [2]; polymer S/TMQ(1:2), 20 min",9994.7
same,S/N,"alkaline phosphatase [2]; polymer S/TMQ(1:2), time 0",1.0
same,SIGNAL,"alkaline phosphatase [2]; polymer S/TMQ(1:2), time 0 (background, before enzyme)",169.8
same,S/N,"alkaline phosphatase [2]; polymer S/TMQ(1:4), 5 min",35.7
same,SIGNAL,"alkaline phosphatase [2]; polymer S/TMQ(1:4), 5 min",5931.5
same,S/N,"alkaline phosphatase [2]; polymer S/TMQ(1:4), 20 min",95.4
same,SIGNAL,"alkaline phosphatase [2]; polymer S/TMQ(1:4), 20 min",15866.3
same,S/N,"alkaline phosphatase [2]; polymer S/TMQ(1:4), time 0",1.0
same,SIGNAL,"alkaline phosphatase [2]; polymer S/TMQ(1:4), time 0 (background, before enzyme)",116.3
same,SIGNAL,"alkaline phosphatase [2]; polymer SAPPHIRE (BDMQ), time 0 (background, before enzyme)",241.4
same,S/N,"alkaline phosphatase [2]; polymer SAPPHIRE, 5 min",159.3
same,SIGNAL,"alkaline phosphatase [2]; polymer SAPPHIRE, 5 min",38457.8
same,S/N,"alkaline phosphatase [2]; polymer SAPPHIRE, 20 min",353.6
same,SIGNAL,"alkaline phosphatase [2]; polymer SAPPHIRE, 20 min",85359.8
same,S/N,"alkaline phosphatase [2]; polymer SAPPHIRE, time 0",1.0
same,SIGNAL,"alkaline phosphatase [2]; polymer TBQ-FLUOR (TBQ and fluorescein), time 0 (background, before enzyme)",4961.2
same,S/N,"alkaline phosphatase [2]; polymer TBQ-FLUOR, 5 min",113.9
same,SIGNAL,"alkaline phosphatase [2]; polymer TBQ-FLUOR, 5 min",57271.6
same,S/N,"alkaline phosphatase [2]; polymer TBQ-FLUOR, 20 min",291.4
same,SIGNAL,"alkaline phosphatase [2]; polymer TBQ-FLUOR, 20 min",1445675.6
same,S/N,"alkaline phosphatase [2]; polymer TBQ-FLUOR, time 0",1.0
same,S/N,"alkaline phosphatase [2]; polymer TBQ, 5 min",191.2
same,SIGNAL,"alkaline phosphatase [2]; polymer TBQ, 5 min",94429.4
same,S/N,"alkaline phosphatase [2]; polymer TBQ, 20 min",433.9
same,SIGNAL,"alkaline phosphatase [2]; polymer TBQ, 20 min",214319.4
same,S/N,"alkaline phosphatase [2]; polymer TBQ, time 0",1.0
same,SIGNAL,"alkaline phosphatase [2]; polymer TBQ, time 0 (background, before enzyme)",493.9
same,S/N,"alkaline phosphatase [2]; polymer TEQ, 5 min",115.3
same,SIGNAL,"alkaline phosphatase [2]; polymer TEQ, 5 min",25095.8
same,S/N,"alkaline phosphatase [2]; polymer TEQ, 20 min",229.7
same,SIGNAL,"alkaline phosphatase [2]; polymer TEQ, 20 min",50020.0
same,S/N,"alkaline phosphatase [2]; polymer TEQ, time 0",1.0
same,SIGNAL,"alkaline phosphatase [2]; polymer TEQ, time 0 (background, before enzyme)",217.8
same,S/N,"alkaline phosphatase [2]; polymer TMQ, 5 min",65.8
same,SIGNAL,"alkaline phosphatase [2]; polymer TMQ, 5 min",10525.8
same,S/N,"alkaline phosphatase [2]; polymer TMQ, 20 min",141.1
same,SIGNAL,"alkaline phosphatase [2]; polymer TMQ, 20 min",22558.3
same,S/N,"alkaline phosphatase [2]; polymer TMQ, time 0",1.0
same,SIGNAL,"alkaline phosphatase [2]; polymer TMQ, time 0 (background, before enzyme)",159.9
same,HALF-TIME TO PLATEAU (min.) AL LOW ALK PHOS CONCENTRATION,alkaline phosphatase [3],1.97 min
